Peptide text beside a SMILES is read from it. * marks the point of attachment. Cbz = O=C(OCc1ccccc1)*; CH2F = FC*
What was measured:
Assay type in all cases: cell-based
[1] = test system: EVI1 forms (MDS1/EVI1, EVI1, EVI1^Del190-515)
Procedure: (§1) Proteins were resolved on an 8%, 12%, or 15% SDS-PAGE gel (as appropriate) and electrophoretically transferred to polyvinyldifluoride (PVDF) membranes. After blocking with 5% (w/v) milk in TBST (Tris-Buffered Saline containing 0.1% Tween-20) for one hour at room temperature, membranes were incubated with primary antibodies (at appropriate dilution) overnight at 4° C., followed by extensive washing and incubation for 1 hour with the appropriate horseradish peroxidase-conjugated secondary antibodies (BioRad, Hercules, Calif.). Blots were washed extensively. A rabbit polyclonal EVI1 antibody was obtained (1:3000 dilution, St. Jude's Children's Hospital, Memphis, Tenn.). SnoN rabbit polyclonal (1:1000 dilution), PML, and p21 SMURF2 rabbit polyclonal (1:500 dilution), MRP1 mouse monoclonal (1:500 dilution) and GAPDH mouse monoclonal (1:250 dilution) antibodies were obtained from Santa Cruz Biotechnology (Santa Cruz, Calif.). TGFβRII rabbit polyclonal (1:1000 dilution) antibody was obtained from Strategic Diagnostics (Newark, Del.). Smad2/3 rabbit polyclonal (1:1000 dilution), Beclin-1 rabbit polyclonal (1:1000 dilution), AKT rabbit polyclonal (1:1000 dilution), TAK1 rabbit polyclonal (1:1000 dilution), PARP rabbit polyclonal (1:1000 dilution), Beclin-1 rabbit polyclonal (1:1000 dilution), caspase-3 rabbit polyclonal (1:1000) which detects the pro-caspase form, and ATG5 rabbit polyclonal (1:1000 dilution), LC3-II rabbit polyclonal (1:1000 dilution) antibodies were obtained from Cell Signaling Technology (Danvers, Mass.). The HSP27 mouse monoclonal (1:1000 dilution) antibody was obtained from Stressgen (Ann Arbor, Mich.). Blots were developed using chemiluminescence substrates (Amersham Piscataway, N.J. or BioRad, Hercules, Calif.). Monoclonal PAI-1 antibody was obtained from BD Pharmingen. PSMAD2, total SMAD2/3, p-ERK, p-AKT, and total AKT antibodies were obtained from Cell Signaling Technology. A monoclonal antibody against Arkadia was obtained from Abnova (Taiwan).
(§2) Densitometric analysis was performed using the HP Scanjet 5590 and the Image J program (Image Processing and Analysis in Java, NIH Image Software). Bands were selected and the intensity values were normalized to those for GAPDH. The values are presented as fold-changes relative to control siRNA treated cells.
(§3) The clinical inhibitors As2O3, geldanamycin (17-AAG) (dissolved in dimethylsulfoxide [DMSO]), and MG132 (dissolved in DMSO) were obtained from Sigma-Aldrich (St. Louis, Mo.), Fisher Scientific (Pittsburgh, Pa.), and Alexis Biochemicals (Farmingdale, N.Y.), respectively. N-acetyl-L-cysteine (NAC; dissolved in media) and Bortezomib (PS-341; dissolved in DMSO) were obtained from Fisher Scientific. 3-Methyladenine (3-MA; dissolved in media) was obtained from MP Biomedicals (Solon, Ohio). Tiron (4,5-Dihydroxy-1,3-benzenedisulfonic acid, dissolved in media) was obtained from Fisher Scientific. zVAD-fmk (dissolved in DMSO) and bafilomycin A (dissolved in DMSO) was obtained from Axxora LLC (San Diego, Calif.). Bovine catalase was obtained from Sigma-Aldrich. HBED and Mn TBAP was obtained from ENZO Life Sciences (Farmingdale, N.Y.). Ovarian cells were plated in 6-well plates at 250,000 cells per well and grown in complete medium. The following day, the cells were treated with 5 μM MG132, As2O3 (between 2-50 μM), 17-AAG (between 2-50 μM), NAC (Fisher Scientific, between 25 μM to 1 mM), Tiron (between 25 μM to 1 mM), 3-MA (0.1 mM to 10 mM), or zVAD-fmk (25 μM to 100 μM). For control cells, DMSO (a final concentration of <0.5%) was added to compare appropriately to drugs dissolved in DMSO. After the appropriate incubation time (6 or 18 hours), cell lysates were collected, protein quantified, and SDS-PAGE/western analysis was performed. In addition, for selected studies, RNA was isolated, quantified, and used for qPCR analysis.

SnoN = assay: Western analysis of SnoN protein levels
Procedure: as §1, §2
as §3, with “The following day, the cells were treated with 5 μM MG132, As2O3 (between 2-50 μM), 17-AAG (between 2-50 μM), NAC (Fisher Scientific, between 25 μM to 1 mM), Tiron (between 25 μM to 1 mM), 3-MA (0.1 mM to 10 mM), or zVAD-fmk (25 μM to 100 μM).” left out

[2] = test system: TAK1, SMAD2/3, TGFβRII, AKT, phospho-SMAD2; assay: Western analysis of other TGFβ signaling mediators
Procedure: as §1, §2, §3

ovarian cancer cells = assay: Cell titer glo cell viability assay; details: 25 μM, 18 hour treatment, relative to control cells
Procedure: Measurement of Intracellular ATP Levels. T80, HEY, and SKOV3 ovarian cells were seeded in triplicate for each treatment group at 5000 cells per well into each well of a 96 well white-opaque plate. Following overnight cell attachment, cells were treated for 18 hours with appropriate doses of arsenic trioxide or geldanamycin (0 mM, 2 μM, 5 μM, 10 μM, 25 μM, and 50 μM). Following termination of the cell treatments, the media was removed from the wells and replaced with 100 μl of phosphate-buffered saline (PBS). The plate was equilibrated to room temperature, 100 μl of Cell-Titer Glo reagent (Promega, Madison, Wis.) was added, and mixed on a plate shaker for 2 minutes. The plate was further incubated for 10 minutes at room temperature prior to reading with a Biotek luminescence plate reader to obtain relative light unit (RLU) measurements. Empty wells (containing no cells) were utilized as a correction for background luminescence. All experiments were performed in triplicate.

cleaved PARP = assay: Western analysis of PARP cleavage (early apoptosis marker); details: HEY; for PARP cleavage in As2O3-treated cells with added inhibitor: 18 hours
Procedure: as §1, §2, §3

HSP27 = assay: Western analysis of HSP27; details: HEY, 18 hours
Procedure: as §1, with “The HSP27 mouse monoclonal (1:1000 dilution) antibody was obtained from Stressgen (Ann Arbor, Mich.). Blots were developed using chemiluminescence substrates (Amersham Piscataway, N.J. or BioRad, Hercules, Calif.). Monoclonal PAI-1 antibody was obtained from BD Pharmingen. PSMAD2, total SMAD2/3, p-ERK, p-AKT, and total AKT antibodies were obtained from Cell Signaling Technology. A monoclonal antibody against Arkadia was obtained from Abnova (Taiwan).” left out
(§4) The clinical inhibitors As2O3, geldanamycin (17-AAG) (dissolved in dimethylsulfoxide [DMSO]), and MG132 (dissolved in DMSO) were obtained from Sigma-Aldrich (St. Louis, Mo.), Fisher Scientific (Pittsburgh, Pa.), and Alexis Biochemicals (Farmingdale, N.Y.), respectively. […] After the appropriate incubation time (6 or 18 hours), cell lysates were collected, protein quantified, and SDS-PAGE/western analysis was performed. In addition, for selected studies, RNA was isolated, quantified, and used for qPCR analysis.

[3] = test system: LC3-I/LC3-II, autophagosomes; assay: Autophagy: LC3 western, EGFP-LC3 fluorescence, TEM of autophagosomes; details: HEY, 18 hours
Procedure: as §1
HEY cells were seeded onto glass coverslips and allowed to adhere following overnight incubation. The cells were then transiently transfected with EGFP-LC3 (Addgene, Cambridge, Mass.) and allowed to recover for 24 hours. The cells were treated at the appropriate concentrations of As2O3 in the absence or presence of 3-MA (5 and 10 mM), for 18 hours. The cells were then fixed in 4% paraformaldehyde in PBS for 30 minutes at room temperature, washed twice in PBS, and blocked for 1 hour at room temperature in PBS containing 5% goat serum and 0.1% Triton X-100. The cells were counterstained with Hoescht nuclear stain, washed 3 times for 5 minutes in PBS, anti-Fade containing DAPI nuclear stain was then applied, and coverslips mounted onto glass slides and viewed under a Zeiss inverted fluorescence microscope (Moffitt Cancer Center Microscopy Core).
Autophagy induction was analyzed using electron microscopy. […] Cells were then fixed in 2.5% glutaraldehyde in 0.1M phosphate buffer overnight at 4° C. Following rinsing in buffer, cells were scraped from the culture flasks, washed, and then post-fixed in 1% osmium tetroxide in buffer. After dehydration in a graded series of acetone, the cells were embedded in Embed 812 epoxy resin. Thin sections (70 nm) were cut on an Ultramicrotome. The sections on the grids were stained with uranyl acetate and lead citrate. The sections were examined on a Transmission Electron Microscope (Morgagni 268D).

SnoN RNA = assay: qPCR of SnoN RNA levels in ovarian cell lines; design: reduction of basal SnoN RNA levels / effect on basal SnoN RNA levels: unit of the concentration uncertain
Procedure: RNA was isolated using the RNeasy Mini Kit (Qiagen, Valencia, Calif.) from normal, benign, stage I-IV ovarian patient samples and quantitative PCR was performed. A one-step RT-PCR Taqman master mix from Applied Biosystems (Foster City, Calif.) and primers for genes in the 3q26.2 amplicon were obtained using Genebank sequences as well as from Assays on Demand (Hs00180524_m1 (SnoN/SkiL)), with the following primers and probe sets.
Primers/probe sequences for SnoN (Hs00180524_m1), TGFβRII (Hs00234253_m1), and LC3 (Hs00261291_m1) were obtained from Applied Biosystems (Assays by Design).
mRNA levels were determined using the One-Step-Plus Applied Biosystems Detection System or ABI PRISM 7700 Sequence Detection System using β-actin as a reference. PCR conditions were as follows: stage I: 48° C. for 30 min; stage II: 95° C. for 10 min; stage III: [40 cycles] 95° C. for 15 s followed by 60° C. for 1 min Using the correlative method, RNA-fold change in expression was calculated as Ct of gene—Ct of β-actin to generate ΔCt from which ΔCt of the normal sample was subtracted. These values were then converted to log2 values.
as §4, with “respectively. N-acetyl-L-cysteine (NAC; dissolved in media) and Bortezomib (PS-341; dissolved in DMSO) were obtained from Fisher Scientific. 3-Methyladenine (3-MA; dissolved in media) was obtained from MP Biomedicals (Solon, Ohio). Tiron (4,5-Dihydroxy-1,3-benzenedisulfonic acid, dissolved in media) was obtained from Fisher Scientific. zVAD-fmk (dissolved in DMSO) and bafilomycin A (dissolved in DMSO) was obtained from Axxora LLC (San Diego, Calif.).” for “respectively.”

[4] = HEY and OVCA429, 18 hours, increasing doses

Compound: 17-allylaminogeldanamycin [17-AAG]
- MDS1/EVI1 and EVI1^Del190-515 protein ([1]; 5 μM 17-AAG, 18 hour): reduced
- wild type EVI1 protein ([1]; 5 μM 17-AAG, 18 hour): not dramatically affected
- protein levels of EVI1 forms [1, 4]: slight decrease
- SnoN/SkiL protein levels (SnoN; [4]): slight decrease
- TGFβRII, SMAD2/3, and AKT protein [2, 4]: more marked reductions
- reduction of cell growth (cellular viability) (ovarian cancer cells): 63%

Compound: Cn1cnc(N)c2ncnc1-2 [3-MA, 3-Methyladenine]
- PARP cleavage in As2O3-treated cells with added inhibitor (cleaved PARP): further increased
- SnoN levels in As2O3-treated cells with added inhibitor (SnoN; HEY, 18 hours): not dramatically altered
- HSP27 levels in As2O3-treated cells with added inhibitor (HSP27): reduced dramatically
- LC3 levels (LC3-II/LC3-I) in As2O3-treated cells with added inhibitor [3]: reduced

Compound: CO/C1=C\C(C)=C\[C@@H](C)[C@@H](O)[C@@H](C)C/C(C)=C/C=C/[C@H](OC)[C@@H]([C@@H](C)[C@@H](O)[C@H](C)[C@@]2(O)C[C@@H](O)[C@H](C)[C@@H](C(C)C)O2)OC1=O [Bafilomycin A1]
- PARP cleavage in As2O3-treated cells with added inhibitor (cleaved PARP): increased
- SnoN levels in As2O3-treated cells with added inhibitor (SnoN; HEY, 18 hours): slightly reduced
- LC3 levels (LC3-II/LC3-I) in As2O3-treated cells with added inhibitor [3]: increased

Compound: O=c1cc(N2CCOCC2)oc2c(-c3ccccc3)cccc12 [LY294002]
- reduction of basal SnoN RNA levels (SnoN RNA; 50 (unit uncertain), 12 h post-treatment, OVCA429, HEY, T29, T80): 50%

Compound: CC(=O)N[C@@H](CS)C(=O)O [NAC, N-acetyl-L-cysteine]
- SnoN expression in As2O3-treated cells with increasing doses of NAC (SnoN; HEY, 18 hours): markedly reduced
- EVI1, TAK1, and TGFβRII protein expression in As2O3-treated cells with NAC ([2]; HEY, 18 hours): recovery

Compound: CC(C)C[C@H](NC(=O)[C@H](Cc1ccccc1)NC(=O)c1cnccn1)B(O)O [PS-341, Bortezomib]
- EVI1 protein in As2O3-treated cells with added proteosome inhibitor ([1]; combination with As2O3, HEY, OVCA429): recovered
- SnoN protein in drug-treated cells with added proteosome inhibitor (SnoN; combination with As2O3): further increased
- TGFβRII protein in drug-treated cells with added proteosome inhibitor ([2]; combination with As2O3 (MG132: 6 hour drug treatment)): did not appear to be recovered

Compound: N#CC(=C(/N)Sc1ccccc1N)/C(C#N)=C(\N)Sc1ccccc1N [U0126]
- effect on basal SnoN RNA levels (SnoN RNA; 25 (unit uncertain), data not shown): not significant

Compound: COC(=O)C[C@H](NC(=O)[C@H](C)NC(=O)[C@@H](NC(=O)OCc1ccccc1)C(C)C)C(=O)CF [zVAD-fmk] (Cbz-Val-Ala-Asp(OMe)-CH2F)
- PARP cleavage in As2O3-treated cells with added inhibitor (cleaved PARP): dramatically reduced
- SnoN levels in As2O3-treated cells with added inhibitor (SnoN; HEY, 18 hours): remained unchanged
- HSP27 levels in As2O3-treated cells with added inhibitor (HSP27): slightly decreased
- LC3 levels (LC3-II/LC3-I) in As2O3-treated cells with added inhibitor [3]: remained unchanged

Compound: EVI1 siRNA: Dharmacon custom siRNA against EVI1 Exon VII, SEQ ID 6 (ACUACGUCUUCCUUAAAUAUU; listed as RNA, chemistry not given here)
- effect on As2O3-induced PARP cleavage (cleaved PARP; As2O3-treated): did not dramatically alter
- reduction of SnoN levels (SnoN; absence and presence of As2O3 (6 and 18 h, 50 μM), HEY): > 50%

Compound: TGF-β
- SnoN protein levels in ovarian cancer cells (SnoN; SKOV3, OVCA429, OVCAR8, HEY, between 1 and 3 h post stimulation): dramatic increase
- SnoN protein levels in immortalized normal ovarian epithelial cells (SnoN; T29 and T80, between 15 min and 1 h post-TGF-β stimulation (50 pM)): dramatic decrease
- phospho-SMAD2 levels ([2]; 1 h post stimulation, T29, T80, SKOV3, HEY, OVCA429, OVCAR8): markedly elevated
